We go through 1 substance from patent publication US20220280548A1, “COMBINATION THERAPY FOR SPINAL MUSCULAR ATROPHY” (Biogen MA Inc., priority 2019, published 2022).

Entries after “also recorded” stand apart in the source; their conditions may differ.

The test system of this data set is neonatal (P0-P1) SMA mice having a human SMN2 transgene. Description: Body weight and righting reflex in neonatal SMA mice given nusinersen and/or AAV-SMN1 (Example 9). It is filed as in vivo. The following applies: monotherapy, single dose. As for the experimental part:
Nusinersen and AAV-SMN1 were administered to neonatal (P0-P1) SMA mice having a human SMN2 transgene. A low or high dose of nusinersen (1 μg and 3 μg respectively) was administered to the mice along with a low or high dose of AAV-SMN1 (1×10^10 GC or 3×10^10 GC respectively) at birth (P0-P1). The mice body weight and righting reflex were measured and compared to the body weight and righting reflex of control mice of the same genotype having received either nusinersen or AAV-SMN1 alone.
[…]

Turning to “nusinersen (antisense UCACUUUCAUAAUGCUGG; 2'-O-MOE, phosphorothioate, chemistry not fully specified) [uniformly modified 2′-O-(2-methoxyethyl) phosphorothioate antisense oligonucleotide consisting of 18 nucleotide residues, targets intron 7 of SMN2 pre-mRNA]”, the “rescue of motor function (righting reflex)” value reads like this: (PND 16) “full rescue”; (postnatal day (PND) 8) “partially rescues; also recorded: partial rescue”. Besides, the body weight entry (relative to WT control) is listed as “lags behind the WT control”.
